Experimental data as given in patent publication US12077508B2, “Inhibitors of the Notch transcriptional activation complex kinase (“NACK”) and methods for use of the same” (UNIVERSITY OF MIAMI, priority 2018, dated 2024).
Where two headings read alike, the source gives them in different places.

What was measured:
LCK = LCK (Homo sapiens, UniProt P06239); assay: ADP-Glo LCK kinase assay; assay type: biochemical; settings: FIG. 17B
Method: (§1) ADP-Glo kinase assay was performed using ADP-Glo™ Kinase Assay (Promega, V6930) according to the manufacture recommended protocol.

NACK = target: T1, NACK (Mus musculus, UniProt Q571I4); assay: Surface plasmon resonance (SPR) binding to GST tagged NACK; settings: equilibrium approach, 1:1 binding model; 25° C.; FIG. 10A; read-out: KD
T1 sequence (Q571I4 1-1373): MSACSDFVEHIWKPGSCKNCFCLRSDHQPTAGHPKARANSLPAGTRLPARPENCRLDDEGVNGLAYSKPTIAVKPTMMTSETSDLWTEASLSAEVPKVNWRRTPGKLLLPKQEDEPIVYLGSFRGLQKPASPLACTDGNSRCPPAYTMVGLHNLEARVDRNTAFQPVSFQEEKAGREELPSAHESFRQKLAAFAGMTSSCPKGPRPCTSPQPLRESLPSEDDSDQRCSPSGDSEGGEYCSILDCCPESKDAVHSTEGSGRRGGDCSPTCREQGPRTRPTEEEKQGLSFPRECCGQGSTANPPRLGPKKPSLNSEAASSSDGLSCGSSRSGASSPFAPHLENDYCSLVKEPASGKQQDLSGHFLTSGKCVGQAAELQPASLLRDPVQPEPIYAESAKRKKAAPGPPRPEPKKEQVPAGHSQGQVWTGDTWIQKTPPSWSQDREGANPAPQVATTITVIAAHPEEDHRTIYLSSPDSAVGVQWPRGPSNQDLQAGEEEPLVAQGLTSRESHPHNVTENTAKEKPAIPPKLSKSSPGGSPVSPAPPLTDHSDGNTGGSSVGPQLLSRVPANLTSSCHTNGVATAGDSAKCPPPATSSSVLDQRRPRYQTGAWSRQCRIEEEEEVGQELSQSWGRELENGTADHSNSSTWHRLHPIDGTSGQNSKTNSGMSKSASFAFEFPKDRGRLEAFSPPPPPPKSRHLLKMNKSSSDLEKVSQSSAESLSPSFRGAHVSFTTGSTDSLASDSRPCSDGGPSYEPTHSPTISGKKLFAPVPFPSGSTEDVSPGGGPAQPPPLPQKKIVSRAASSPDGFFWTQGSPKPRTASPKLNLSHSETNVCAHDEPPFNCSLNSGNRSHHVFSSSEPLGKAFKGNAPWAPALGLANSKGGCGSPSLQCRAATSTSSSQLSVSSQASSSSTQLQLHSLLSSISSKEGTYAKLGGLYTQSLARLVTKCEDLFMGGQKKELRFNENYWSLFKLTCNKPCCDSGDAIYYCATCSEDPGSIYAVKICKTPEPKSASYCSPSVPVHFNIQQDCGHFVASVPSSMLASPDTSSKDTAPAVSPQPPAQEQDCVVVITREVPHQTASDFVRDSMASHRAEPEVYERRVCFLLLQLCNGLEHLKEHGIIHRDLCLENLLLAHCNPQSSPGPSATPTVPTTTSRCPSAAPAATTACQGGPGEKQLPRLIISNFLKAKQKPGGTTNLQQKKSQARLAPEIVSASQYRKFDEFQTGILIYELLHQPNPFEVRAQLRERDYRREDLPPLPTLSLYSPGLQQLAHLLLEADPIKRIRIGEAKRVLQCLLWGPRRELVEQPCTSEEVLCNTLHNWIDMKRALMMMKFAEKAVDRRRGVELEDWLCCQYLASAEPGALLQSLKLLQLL
Method: The interaction between inhibitor Z271-0326 and target NACK was characterized using surface plasmon resonance (SPR). For this purpose, GST tagged NACK was captured by a GST antibody that was previously immobilized onto the surface of the chip through standard amide coupling. The dissociation constants associated with binding of the compounds to NACK was determined using the equilibrium approach, which consists of plotting the equilibrium response (Req) as a function of concentration of the compound and fitting the data to a 1:1 binding model.
A GST capture kit (GE Healthcare) were utilized to covalently immobilize an anti-GST antibody, provided in the kit, to the sensor chip surface (CM5 chip, GE Healthcare) by following the manufacturer's instructions. Capture were performed by injecting GST-NACK (1 μg/μL) over the immobilized anti-GST antibody in Hepes buffer (10 mM Hepes, pH 7.5, 150 mM NaCl, 3 mM EDTA, 0.0005% NP-40) for 7 min at 10 μL/min. A reference flow cell was prepared by capturing GST following the procedure described above. […] Experiments were performed on a Biacore T200 instrument (GE Healthcare) at 25° C. Small molecule inhibitors binding to NACK were performed in 50 mM Tris buffer, pH 7.5, containing 150 mM NaCl, 10 mM MgCl2 and 5% DMSO (running buffer). The SPR signal arising from the sample was corrected for its respective control containing DMSO. Data visualization and analysis was performed using Biacore T200 software (GE Healthcare) and Origin 8.0 (OriginLab).

OE33 cell line = assay: Colony formation assay in OE33 cells; assay type: cell-based, human; settings: for EC50: Homo sapiens, read-out: EC50 colony formation titration assay
Method: A cell based colony formation assay was used in these experiments. Normal mouse mammary epithelia HC11 cells have little or no endogenous NACK expression, and NACK knockdown had no effect on the growth of HC11 cells (FIG. 5A, lower panel). […] Knockdown of NACK was confirmed by western blot and qPCR (FIGS. 1D and 1E). […] Therefore, compounds that affect OE33 colony formation but not HC11 were desired. In order to screen the compounds, cells were treated with test compounds every other day.
Colony formation assay was utilized to determine the effect of small molecule inhibitors on cell proliferation. In general, different cell lines (NACK dependent or independent) will be seeded in 6-well plates at a density of 2000 cells per well and allowed to attach overnight. Inhibitor treatment commenced 24 hours post seeding, and the media containing inhibitor was changed every 48 hours thereafter. After 168 hours, colonies were be stained with Crystal Violet (Millipore) and counted.

TNIK = TNIK (Homo sapiens, UniProt Q9UKE5); assay: ADP-Glo TNIK kinase assay; assay type: biochemical; settings: FIG. 17C
Method: as §1

MAP4K5 = MAP4K5 (Homo sapiens, UniProt Q9Y4K4); assay: ADP-Glo MAP4K5 kinase assay; assay type: biochemical; settings: FIG. 17A
Method: as §1

Chain of LCK (P06239 whole entry, species assumed): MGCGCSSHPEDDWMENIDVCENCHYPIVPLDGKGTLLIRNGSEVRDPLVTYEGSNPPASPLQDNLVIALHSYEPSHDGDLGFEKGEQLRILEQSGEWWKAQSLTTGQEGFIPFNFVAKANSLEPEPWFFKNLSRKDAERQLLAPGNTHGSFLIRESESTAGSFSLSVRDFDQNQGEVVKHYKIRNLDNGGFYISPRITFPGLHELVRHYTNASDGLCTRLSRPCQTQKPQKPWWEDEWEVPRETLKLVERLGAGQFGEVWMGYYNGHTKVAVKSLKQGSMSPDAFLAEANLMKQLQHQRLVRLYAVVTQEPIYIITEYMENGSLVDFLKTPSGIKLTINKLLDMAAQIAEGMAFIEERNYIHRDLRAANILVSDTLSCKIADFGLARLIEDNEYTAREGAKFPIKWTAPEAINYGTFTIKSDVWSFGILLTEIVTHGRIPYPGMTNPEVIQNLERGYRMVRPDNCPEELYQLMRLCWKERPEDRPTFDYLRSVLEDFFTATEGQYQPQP
Chain of MAP4K5 (Q9Y4K4 whole entry, species assumed): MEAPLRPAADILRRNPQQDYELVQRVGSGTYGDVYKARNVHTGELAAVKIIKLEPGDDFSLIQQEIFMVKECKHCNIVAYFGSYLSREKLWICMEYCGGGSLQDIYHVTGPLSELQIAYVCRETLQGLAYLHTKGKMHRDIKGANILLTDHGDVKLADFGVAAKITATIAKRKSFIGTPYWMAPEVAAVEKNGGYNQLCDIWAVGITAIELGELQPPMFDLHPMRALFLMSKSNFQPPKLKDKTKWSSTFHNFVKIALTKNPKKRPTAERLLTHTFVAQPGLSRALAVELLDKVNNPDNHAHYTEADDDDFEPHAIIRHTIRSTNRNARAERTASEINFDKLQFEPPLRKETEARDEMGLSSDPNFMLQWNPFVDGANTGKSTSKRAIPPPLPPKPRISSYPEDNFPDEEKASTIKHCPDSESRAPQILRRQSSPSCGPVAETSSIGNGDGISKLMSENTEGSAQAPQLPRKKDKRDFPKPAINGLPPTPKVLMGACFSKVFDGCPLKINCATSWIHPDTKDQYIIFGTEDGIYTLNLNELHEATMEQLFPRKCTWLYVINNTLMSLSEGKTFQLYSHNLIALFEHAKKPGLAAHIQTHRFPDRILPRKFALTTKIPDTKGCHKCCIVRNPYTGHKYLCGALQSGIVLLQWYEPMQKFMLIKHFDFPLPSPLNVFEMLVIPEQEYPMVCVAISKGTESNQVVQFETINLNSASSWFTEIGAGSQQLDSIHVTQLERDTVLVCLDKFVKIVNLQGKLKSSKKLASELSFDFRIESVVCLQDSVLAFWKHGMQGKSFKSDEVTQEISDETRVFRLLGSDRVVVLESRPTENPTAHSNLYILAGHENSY
Chain of TNIK (Q9UKE5 whole entry, species assumed): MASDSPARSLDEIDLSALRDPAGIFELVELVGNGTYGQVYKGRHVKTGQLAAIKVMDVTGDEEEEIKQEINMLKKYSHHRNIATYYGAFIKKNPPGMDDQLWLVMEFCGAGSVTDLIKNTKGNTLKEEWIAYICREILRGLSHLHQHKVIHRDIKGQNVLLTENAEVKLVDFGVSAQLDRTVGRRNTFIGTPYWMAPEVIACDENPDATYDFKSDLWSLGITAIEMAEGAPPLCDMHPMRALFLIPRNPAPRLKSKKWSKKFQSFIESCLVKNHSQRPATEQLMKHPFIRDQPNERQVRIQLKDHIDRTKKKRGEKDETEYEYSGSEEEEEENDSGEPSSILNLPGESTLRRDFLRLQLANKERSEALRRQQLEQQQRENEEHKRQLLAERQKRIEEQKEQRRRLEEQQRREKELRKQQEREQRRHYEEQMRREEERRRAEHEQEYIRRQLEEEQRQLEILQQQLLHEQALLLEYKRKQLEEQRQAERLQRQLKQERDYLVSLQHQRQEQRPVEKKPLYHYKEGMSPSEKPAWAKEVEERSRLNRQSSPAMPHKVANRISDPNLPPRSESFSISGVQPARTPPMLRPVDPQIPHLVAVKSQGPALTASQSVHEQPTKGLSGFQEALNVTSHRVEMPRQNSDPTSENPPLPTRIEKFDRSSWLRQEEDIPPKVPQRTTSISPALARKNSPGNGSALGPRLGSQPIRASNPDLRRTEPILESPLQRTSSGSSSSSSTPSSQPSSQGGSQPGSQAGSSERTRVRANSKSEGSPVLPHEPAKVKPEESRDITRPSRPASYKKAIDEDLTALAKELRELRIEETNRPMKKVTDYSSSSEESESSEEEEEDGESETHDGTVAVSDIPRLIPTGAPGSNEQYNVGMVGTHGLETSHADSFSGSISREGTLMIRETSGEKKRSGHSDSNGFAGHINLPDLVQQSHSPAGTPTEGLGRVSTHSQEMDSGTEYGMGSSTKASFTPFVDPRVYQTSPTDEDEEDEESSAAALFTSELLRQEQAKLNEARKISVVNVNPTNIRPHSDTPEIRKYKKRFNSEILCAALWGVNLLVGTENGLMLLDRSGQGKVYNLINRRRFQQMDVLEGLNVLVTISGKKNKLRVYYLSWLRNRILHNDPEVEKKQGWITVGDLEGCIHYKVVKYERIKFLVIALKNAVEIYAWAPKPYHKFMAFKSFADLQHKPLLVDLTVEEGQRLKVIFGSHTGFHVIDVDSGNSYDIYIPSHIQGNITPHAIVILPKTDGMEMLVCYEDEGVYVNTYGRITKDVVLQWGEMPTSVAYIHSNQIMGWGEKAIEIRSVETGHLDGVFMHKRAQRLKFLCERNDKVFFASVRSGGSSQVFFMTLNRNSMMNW

Compound: CCN(CC)C(=O)c1cnn2ccc(C3CCN(S(=O)(=O)c4ccc(NC(C)=O)cc4)CC3)cc12 [Compound Z271-0326, 5-(1-((4-acetamidophenyl)sulfonyl)piperidin-4-yl)-N,N-diethylpyrazolo[1,5-a]pyridine-3-carboxamide]
- LCK kinase inhibition (LCK): meaningfully inhibits LCK
- Kd (NACK): 0.89 ± 0.07 µM
- EC50 (OE33 cell line; OE33, OE33 cell line, FIG. 18): 1.27 µM
- EC50 (OE33 cell line; OE33, estimated, FIG. 6C): 1.05 µM
- OE33 colony formation (OE33 cell line; cells treated every other day, FIGS. 5B, 5C): effectively inhibit OE33 colony formation
- TNIK kinase inhibition (TNIK): only meaningfully inhibits LCK out of the three kinases
- MAP4K5 kinase inhibition (MAP4K5): only meaningfully inhibits LCK out of the three kinases
